According to article PMC9543379, “Dihydroxy‐Acid Dehydratases From Pathogenic Bacteria: Emerging Drug Targets to Combat Antibiotic Resistance” (Chemistry (Weinheim an Der Bergstrasse, Germany), 2022):

How the values were obtained:
Format in all cases: biochemical
[1] = molecular target: T1, CjDHAD (dihydroxy-acid dehydratase) (Campylobacter jejuni, UniProt Q9PJ98); assay: DNPH colorimetric endpoint assay with DHIV, 30-min pre-incubation
T1 construct: gene ilvD; hexa-histidine tag at the N-terminal, pET-28a

[2] = molecular target: T2, SaDHAD (dihydroxy-acid dehydratase) (Staphylococcus aureus, UniProt Q2FWK7); assay: as above
T2 construct: gene ilvD; hexa-histidine tag at the N-terminal, pET-28a

[3] = molecular target: T1, CjDHAD (dihydroxy-acid dehydratase); assay: DNPH colorimetric endpoint assay with DHIV, no pre-incubation
[4] = molecular target: T2, SaDHAD (dihydroxy-acid dehydratase); assay: as above

T1 sequence (Q9PJ98 whole entry): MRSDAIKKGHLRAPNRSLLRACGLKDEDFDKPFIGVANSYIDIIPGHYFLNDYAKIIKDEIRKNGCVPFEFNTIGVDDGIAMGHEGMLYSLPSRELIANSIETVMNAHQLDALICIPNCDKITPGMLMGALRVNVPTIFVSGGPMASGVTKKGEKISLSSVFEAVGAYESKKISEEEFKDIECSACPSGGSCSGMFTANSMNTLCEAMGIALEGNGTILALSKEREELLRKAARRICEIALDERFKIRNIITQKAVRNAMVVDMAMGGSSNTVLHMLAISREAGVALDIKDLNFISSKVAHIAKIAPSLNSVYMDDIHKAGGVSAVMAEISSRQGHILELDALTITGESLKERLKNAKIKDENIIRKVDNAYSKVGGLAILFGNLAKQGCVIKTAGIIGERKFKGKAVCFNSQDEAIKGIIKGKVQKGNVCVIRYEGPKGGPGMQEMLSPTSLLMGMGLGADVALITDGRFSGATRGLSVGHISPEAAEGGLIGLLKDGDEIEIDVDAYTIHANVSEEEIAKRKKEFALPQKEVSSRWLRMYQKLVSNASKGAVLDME
T2 sequence (Q2FWK7 whole entry): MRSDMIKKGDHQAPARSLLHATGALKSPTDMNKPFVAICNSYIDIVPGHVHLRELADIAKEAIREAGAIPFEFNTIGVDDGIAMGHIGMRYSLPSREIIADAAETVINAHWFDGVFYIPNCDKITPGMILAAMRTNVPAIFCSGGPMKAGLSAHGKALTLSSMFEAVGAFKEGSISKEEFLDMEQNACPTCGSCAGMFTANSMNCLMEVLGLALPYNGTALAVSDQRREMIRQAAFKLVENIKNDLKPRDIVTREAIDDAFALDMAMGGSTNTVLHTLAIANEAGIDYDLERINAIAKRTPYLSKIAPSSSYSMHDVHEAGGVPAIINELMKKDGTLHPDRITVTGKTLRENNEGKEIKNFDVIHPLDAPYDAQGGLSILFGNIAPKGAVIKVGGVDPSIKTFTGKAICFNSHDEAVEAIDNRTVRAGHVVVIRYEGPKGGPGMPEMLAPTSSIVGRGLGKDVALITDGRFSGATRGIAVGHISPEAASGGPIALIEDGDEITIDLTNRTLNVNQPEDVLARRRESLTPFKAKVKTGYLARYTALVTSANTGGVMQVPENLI

Structure (SMILES) | Ki [1] | Ki [2] | Ki [3] | Ki [4]
CC(C)N(O)C(=O)C(=O)O [IpOHA] | 32.9 µM | 7.8 µM | – | –
CC(C)=C1CC[C@]23CO[C@H](C2)[C@@](O)(C(=O)O)CC[C@@H]13 [aspterric acid] | – | – | 35.1 µM | 51.6 µM
